# Data from patent publication US20260144788A1, “COMPOUND FOR SHP2 PROTEIN DEGRADATION AND MEDICAL USES THEREOF” (UBIX THERAPEUTICS, INC., priority 2022, published 2026).
# Target: T1, SHP2 protein (Homo sapiens, UniProt Q06124)
# T1 sequence (Q06124 1-593): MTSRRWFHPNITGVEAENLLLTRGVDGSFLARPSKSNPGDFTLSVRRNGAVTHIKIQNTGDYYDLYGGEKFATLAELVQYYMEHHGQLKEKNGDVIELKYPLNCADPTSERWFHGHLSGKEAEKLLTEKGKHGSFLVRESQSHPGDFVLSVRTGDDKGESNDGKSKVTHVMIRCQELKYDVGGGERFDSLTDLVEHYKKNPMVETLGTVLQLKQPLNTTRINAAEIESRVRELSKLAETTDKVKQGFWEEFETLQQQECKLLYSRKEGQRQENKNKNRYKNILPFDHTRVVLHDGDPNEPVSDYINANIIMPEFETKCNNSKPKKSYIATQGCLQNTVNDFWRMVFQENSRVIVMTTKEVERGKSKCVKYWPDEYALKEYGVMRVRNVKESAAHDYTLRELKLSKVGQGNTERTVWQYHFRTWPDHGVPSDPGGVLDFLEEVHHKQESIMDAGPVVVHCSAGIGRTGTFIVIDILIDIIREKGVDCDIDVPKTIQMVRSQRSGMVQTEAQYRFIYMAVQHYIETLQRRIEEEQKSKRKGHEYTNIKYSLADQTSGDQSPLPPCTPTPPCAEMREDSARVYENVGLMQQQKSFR
# Assay: Measurement of SHP2 protein degradation in NCI-H358 cells (western blotting)
# Type: cell-based
# Parameters: endogenous in cells; host or cells: NCI-H358
# Conditions: harvested after 24 hours
# Outline: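 H358 cells in RPMI1640/25 mM HEPES/10% FBS, cultured 24 h, then exposed to compound at final 0.001, 0.01 and 0.1 μM for 24 h against a DMSO control. Lysates were normalised for protein by BCA and probed by western blot for SHP2, with GAPDH as loading control.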
SMILES,SHP2% degradation (0.01 μM) [%],SHP2% degradation (0.1 μM) [%]
"CC(=O)N[C@H](C(=O)N1C[C@H](O)C[C@H]1C(=O)NCc1ccc(-c2scnc2C)cc1OC1CCN(C(=O)C2CCN(c3nccc(Sc4cnc(N5CCC(C)(CN)CC5)cn4)c3Cl)CC2)CC1)C1CC1 [Example 91, (2S,4R)-1-((S)-2-acetamido-2-cyclopropylacetyl)-N-(2-((1-(1-(4-((5-(4-(aminomethyl)-4-methylpiperidin-1-yl)pyrazin-2-yl)thio)-3-chloropyridin-2-yl)piperidine-4-carbonyl)piperidin-4-yl)oxy)-4-(4-methylthiazol-5-yl)benzyl)-4-hydroxypyrrolidine-2-carboxamide]",53.2,98.5
"Cc1cc(C(C(=O)N2C[C@H](O)C[C@H]2C(=O)NCc2ccc(-c3scnc3C)cc2OC2CCN(C(=O)C3CCN(c4nccc(Sc5cnc(N6CCC(C)(CN)CC6)cn5)c4Cl)CC3)CC2)C(C)C)on1 (stereo partly drawn) [Example 92, (2S,4R)—N-(2-((1-(1-(4-((5-(4-(aminomethyl)-4-methylpiperidin-1-yl)pyrazin-2-yl)thio)-3-chloropyridin-2-yl)piperidine-4-carbonyl)piperidin-4-yl)oxy)-4-(4-methylthiazol-5-yl)benzyl)-4-hydroxy-1-(3-methyl-2-(3-methylisoxazol-5-yl)butanoyl)pyrrolidine-2-carboxamide]",30.1,80.2
"Cc1cc(C(C(=O)N2C[C@H](O)C[C@H]2C(=O)NCc2ccc(-c3scnc3C)cc2OC2CCN(C(=O)C3CCN(c4nccc(Sc5cnc(N6CCC(C)(CN)CC6)cn5)c4Cl)CC3)CC2)C(C)C)on1 (stereo partly drawn) [Example 93, (2S,4R)—N-(2-((1-(1-(4-((5-(4-(aminomethyl)-4-methylpiperidin-1-yl)pyrazin-2-yl)thio)-3-chloropyridin-2-yl)piperidine-4-carbonyl)piperidin-4-yl)oxy)-4-(4-methylthiazol-5-yl)benzyl)-4-hydroxy-1-(3-methyl-2-(3-methylisoxazol-5-yl)butanoyl)pyrrolidine-2-carboxamide]",99.9,99.9
"Cc1cc(C(C(=O)N2C[C@H](O)C[C@H]2C(=O)NCc2ccc(-c3scnc3C)cc2OC2CCN(C(=O)C3CCN(c4nccc(Sc5cnc(N6CCC(C)(N)CC6)cn5)c4Cl)CC3)CC2)C(C)C)on1 (stereo partly drawn) [Example 94, (2S,4R)—N-(2-((1-(1-(4-((5-(4-amino-4-methylpiperidin-1-yl)pyrazin-2-yl)thio)-3-chloropyridin-2-yl)piperidine-4-carbonyl)piperidin-4-yl)oxy)-4-(4-methylthiazol-5-yl)benzyl)-4-hydroxy-1-(3-methyl-2-(3-methylisoxazol-5-yl)butanoyl)pyrrolidine-2-carboxamide]",95.5,100.0
"Cc1cc(C(C(=O)N2C[C@H](O)C[C@H]2C(=O)NCc2ccc(-c3scnc3C)cc2OC2CCN(C(=O)C3CCN(c4nccc(Sc5cnc(N6CCC7(CC6)CO[C@@H](C)[C@H]7N)cn5)c4Cl)CC3)CC2)C(C)C)on1 (stereo partly drawn) [Example 95, (2S,4R)—N-(2-((1-(1-(4-((5-((3S,4S)-4-amino-3-methyl-2-oxa-8-azaspiro[4.5]decan-8-yl)pyrazin-2-yl)thio)-3-chloropyridin-2-yl)piperidine-4-carbonyl)piperidin-4-yl)oxy)-4-(4-methylthiazol-5-yl)benzyl)-4-hydroxy-1-(3-methyl-2-(3-methylisoxazol-5-yl)butanoyl)pyrrolidine-2-carboxamide]",99.2,99.7
"Cc1cc(C(C(=O)N2C[C@H](O)C[C@H]2C(=O)NCc2ccc(-c3scnc3C)cc2OC2CCN(C(=O)C3CCN(c4nccc(Sc5cnc(N6CCC(C)(CN)CC6)c(CO)n5)c4Cl)CC3)CC2)C(C)C)on1 (stereo partly drawn) [Example 96, (2S,4R)—N-(2-((1-(1-(4-((5-(4-(aminomethyl)-4-methylpiperidin-1-yl)-6-(hydroxymethyl)pyrazin-2-yl)thio)-3-chloropyridin-2-yl)piperidine-4-carbonyl)piperidin-4-yl)oxy)-4-(4-methylthiazol-5-yl)benzyl)-4-hydroxy-1-(3-methyl-2-(3-methylisoxazol-5-yl)butanoyl)pyrrolidine-2-carboxamide]",98.9,99.9
"Cc1cc(C(C(=O)N2C[C@H](O)C[C@H]2C(=O)NCc2ccc(-c3scnc3C)cc2OC2CCN(C(=O)C3CCN(c4nccc(Sc5cnc(N6CCC(C)(N)CC6)c(CO)n5)c4Cl)CC3)CC2)C(C)C)on1 (stereo partly drawn) [Example 97, (2S,4R)—N-(2-((1-(1-(4-((5-(4-amino-4-methylpiperidin-1-yl)-6-(hydroxymethyl)pyrazin-2-yl)thio)-3-chloropyridin-2-yl)piperidine-4-carbonyl)piperidin-4-yl)oxy)-4-(4-methylthiazol-5-yl)benzyl)-4-hydroxy-1-(3-methyl-2-(3-methylisoxazol-5-yl)butanoyl)pyrrolidine-2-carboxamide]",95.0,99.7
"Cc1cc(C(C(=O)N2C[C@H](O)C[C@H]2C(=O)NCc2ccc(-c3scnc3C)cc2OC2CCN(C(=O)C3CCN(c4nccc(Sc5cnc(N6CCC7(CC6)CO[C@@H](C)[C@H]7N)c(CO)n5)c4Cl)CC3)CC2)C(C)C)on1 (stereo partly drawn) [Example 98, (2S,4R)—N-(2-((1-(1-(4-((5-((3S,4S)-4-amino-3-methyl-2-oxa-8-azaspiro[4.5]decan-8-yl)-6-(hydroxymethyl)pyrazin-2-yl)thio)-3-chloropyridin-2-yl)piperidine-4-carbonyl)piperidin-4-yl)oxy)-4-(4-methylthiazol-5-yl)benzyl)-4-hydroxy-1-(3-methyl-2-(3-methylisoxazol-5-yl)butanoyl)pyrrolidine-2-carboxamide]",99.6,99.7
"Cc1cnn(C(C(=O)N2C[C@H](O)C[C@H]2C(=O)NCc2ccc(-c3scnc3C)cc2OC2CCN(C(=O)C3CCN(c4nccc(Sc5cnc(N6CCC(C)(CN)CC6)cn5)c4Cl)CC3)CC2)C(C)C)c1 (stereo partly drawn) [Example 99, (2S,4R)—N-(2-((1-(1-(4-((5-(4-(aminomethyl)-4-methylpiperidin-1-yl)pyrazin-2-yl)thio)-3-chloropyridin-2-yl)piperidine-4-carbonyl)piperidin-4-yl)oxy)-4-(4-methylthiazol-5-yl)benzyl)-4-hydroxy-1-(3-methyl-2-(4-methyl-1H-pyrazol-1-yl)butanoyl)pyrrolidine-2-carboxamide]",−4.8,91.5
"Cc1cnn(C(C(=O)N2C[C@H](O)C[C@H]2C(=O)NCc2ccc(-c3scnc3C)cc2OC2CCN(C(=O)C3CCN(c4nccc(Sc5cnc(N6CCC(C)(CN)CC6)cn5)c4Cl)CC3)CC2)C(C)C)c1 (stereo partly drawn) [Example 100, (2S,4R)—N-(2-((1-(1-(4-((5-(4-(aminomethyl)-4-methylpiperidin-1-yl)pyrazin-2-yl)thio)-3-chloropyridin-2-yl)piperidine-4-carbonyl)piperidin-4-yl)oxy)-4-(4-methylthiazol-5-yl)benzyl)-4-hydroxy-1-(3-methyl-2-(4-methyl-1H-pyrazol-1-yl)butanoyl)pyrrolidine-2-carboxamide]",−65.7,−18.7
